Series [1] can be described thus: Two-component Cys-Lys stapling: Cys S-alkynylation by EBX-pentafluorophenyl ester reagents 9a-9d (1.1 equiv), then intramolecular Lys aminolysis of the PFP ester; DIPEA (2.5 equiv). To be noted: the molecule shown is the open-chain precursor, DMF, 1.0 mM, 37.0 °C, 0.5 h, scale: % relative absorbance at 210 nm vs linear peptide standard.
Series [2] is described as follows: Two-component Cys-Lys stapling with EBX-PFP ester reagents 9a/9b (1.1 equiv), DIPEA (2.5 equiv), preparative RP-HPLC. The settings on record: the molecule shown is the open-chain precursor, DMF, 1.0 mM, 37.0 °C.
Series [3] can be described thus: Two-component Cys-Cys stapling with bis-hypervalent iodine reagents 8c-8e (3.0 equiv), DIPEA (2.5 equiv), overnight, preparative RP-HPLC. To be noted: the molecule shown is the open-chain precursor, DMF, 2.0 mM, 37.0 °C.
The conditions of series [4]: the molecule shown is the open-chain precursor, scale: % relative absorbance at 210 nm vs linear peptide standard.
[5] abbreviates: 33-membered ring, DMF, 1.0 mM, 37.0 °C, 4.0 h.
The mark [6] stands for this setting: 22-membered ring, DMF, 1.0 mM, 37.0 °C, 4.0 h.
Setting [7] is: 24-membered ring, DMF, 1.0 mM, 37.0 °C, 4.0 h.

Where two headings read alike, the source gives them in different places.

On to “Ac-YGGEAAREAC(S-C≡C-C6H4-4-CO-OPfp)AREKAARE-NH2”, for which the ring closure, conversion by HPLC in series [1] (27-membered ring) came to 114. In addition, in series [2] (27-membered ring), the ring closure, isolated yield (% isolated yield) amounted to 65.

For “Ac-QSQQTFC(S-C≡C-Si(iPr)2-C≡C-I[bis-CF3 benziodoxole])NLWRLLCQN-NH2”, in series [3] (31-membered ring), the ring closure, isolated yield (% isolated yield) stood at 13. Further, in series [4] (31-membered ring, DMF, 1.0 mM, 37.0 °C, 4.0 h), the ring closure, conversion by HPLC was determined as 30.

In the case of “Ac-ENPEC(S-C≡C-C6H4-4-CO-OPfp)ILDKHVQRVM-NH2”, the ring closure, conversion by HPLC in series [1] (27-membered ring) is 62. Moreover, in series [2] (27-membered ring), the ring closure, isolated yield (% isolated yield) worked out at 52.

In the case of “Ac-QSQQTFC(S-C≡C-Si(iPr)2-O-Si(iPr)2-C≡C-I[bis-CF3 benziodoxole])NLWRLLCQN-NH2”, the ring closure, isolated yield (% isolated yield) in series [3] (33-membered ring) is 17. For the same molecule, the ring closure, conversion by HPLC in series [4] (setting [5]) was 30.

As for “Ac-QSQQTFC(S-C≡C-Si(cHex)2-C≡C-I[bis-CF3 benziodoxole])NLWRLLCQN-NH2”, the ring closure, isolated yield (% isolated yield) in series [3] (31-membered ring) amounted to 22.

Regarding “Ac-ENPEC(S-C≡C-Si(iPr)2-C≡C-I[bis-CF3 benziodoxole])ILDCHVQRVM-NH2”, the ring closure, isolated yield (% isolated yield) in series [3] (22-membered ring) is 46. The same molecule returned a ring closure, conversion by HPLC in series [4] (setting [6]) of 98.

For “5(6)-FAM-QSQQTFC(S-C≡C-C6H4-4-CO-OPfp)NLWRLLKQN-NH2”, the ring closure, isolated yield (% isolated yield) in series [2] (36-membered ring) amounted to 76.

As for “Ac-ENPEC(S-C≡C-C6H4-3-CO-OPfp)ILDKHVQRVM-NH2”, the ring closure, conversion by HPLC in series [1] (26-membered ring) was 34. The ring closure, isolated yield (% isolated yield) in series [2] (26-membered ring) was 7.

`CSCC[C@H](NC(=O)[C@H](CC(N)=O)NC(=O)[C@H](CCCCN)NC(=O)[C@H](Cc1ccc(O)cc1)NC(=O)[C@H](CS)NC(=O)[C@H](CCC(=O)O)NC(=O)[C@H](Cc1c[nH]cn1)NC(=O)[C@H](Cc1c[nH]c2ccccc12)NC(=O)[C@H](CSC#C[Si](C#CI1OC(C(F)(F)F)(C(F)(F)F)c2ccccc21)(C(C)C)C(C)C)NC(=O)[C@H](CCCNC(=N)N)NC(=O)[C@H](CCC(=O)O)NC(=O)[C@@H](N)CO)C(N)=O`: the ring closure, conversion by HPLC in series [4] (setting [6]) came to 79.

“Ac-ENPEC(S-C≡C-Si(cHex)2-C≡C-I[bis-CF3 benziodoxole])ILDCHVQRVM-NH2” showed a ring closure, conversion by HPLC in series [4] (setting [6]) of 89.

Consider “Ac-QSQQTFC(S-C≡C-C6H4-3-C≡C-I[bis-CF3 benziodoxole])NLWRLLCQN-NH2”, for which the ring closure, conversion by HPLC in series [4] (setting [5]) turned out to be 13.

On to “Ac-YGGEAAREAC(S-C≡C-Si(iPr)2-C≡C-I[bis-CF3 benziodoxole])ARECAARE-NH2”, for which, in series [3] (22-membered ring), the ring closure, isolated yield (% isolated yield) turned out to be 48. This molecule returned a ring closure, conversion by HPLC in series [4] (22-membered ring) of 72.

With “Ac-QSQQTFC(S-C≡C-C6H4-3-CO-OPfp)NLWRLLKQN-NH2”, in series [1] (35-membered ring), the ring closure, conversion by HPLC was 110. For the same molecule, the ring closure, isolated yield (% isolated yield) in series [2] (35-membered ring) stood at 55.

With “Ac-QSQQTFC(S-C≡C-C6H4-4-CO-OPfp)NLWRLLKQN-NH2”, the ring closure, conversion by HPLC in series [1] (36-membered ring) stood at 117. For the same molecule, the ring closure, isolated yield (% isolated yield) in series [2] (36-membered ring) is 87.

Consider “Ac-ENPEC(S-C≡C-Si(iPr)2-O-Si(iPr)2-C≡C-I[bis-CF3 benziodoxole])ILDCHVQRVM-NH2”, for which, in series [3] (24-membered ring), the ring closure, isolated yield (% isolated yield) came out at 29. Also, the ring closure, conversion by HPLC in series [4] (setting [7]) was 51.

As for “Ac-YGGEAAREAC(S-C≡C-Si(iPr)2-O-Si(iPr)2-C≡C-I[bis-CF3 benziodoxole])ARECAARE-NH2”, the ring closure, isolated yield (% isolated yield) in series [3] (24-membered ring) was 19. In series [4] (24-membered ring), this molecule had a ring closure, conversion by HPLC of 9.

“Ac-ENPEC(S-C≡C-C6H4-3-C≡C-I[bis-CF3 benziodoxole])ILDCHVQRVM-NH2” displayed a ring closure, conversion by HPLC in series [4] (setting [7]) of 13.

For the molecule “Ac-YGGEAAREAC(S-C≡C-C6H4-3-CO-OPfp)AREKAARE-NH2”, in series [1] (26-membered ring), the ring closure, conversion by HPLC turned out to be 77. In series [2] (26-membered ring), the ring closure, isolated yield (% isolated yield) was 44.

With “Ac-ENPEC(S-C≡C-C6H4-4-C≡C-I[bis-CF3 benziodoxole])ILDCHVQRVM-NH2”, the ring closure, conversion by HPLC in series [4] (25-membered ring) was found to be 27.

In series [4] (34-membered ring, DMF, 1.0 mM, 37.0 °C, 4.0 h), “Ac-QSQQTFC(S-C≡C-C6H4-4-C≡C-I[bis-CF3 benziodoxole])NLWRLLCQN-NH2” yielded a ring closure, conversion by HPLC of 46.

For the origin of these results see PMC8048981, “Cys–Cys and Cys–Lys Stapling of Unprotected Peptides Enabled by Hypervalent Iodine Reagents” (Angewandte Chemie (International Ed. in English), 2021).
